# Data: patent US9315522B2, “Antibacterial compounds” (JANSSEN SCIENCES IRELAND UC, priority 2012, dated 2016)
# Target: T1, S. aureus ATCC 29213 FabI (Staphylococcus aureus, UniProt Q6GI75)
# T1 sequence (Q6GI75 1-256): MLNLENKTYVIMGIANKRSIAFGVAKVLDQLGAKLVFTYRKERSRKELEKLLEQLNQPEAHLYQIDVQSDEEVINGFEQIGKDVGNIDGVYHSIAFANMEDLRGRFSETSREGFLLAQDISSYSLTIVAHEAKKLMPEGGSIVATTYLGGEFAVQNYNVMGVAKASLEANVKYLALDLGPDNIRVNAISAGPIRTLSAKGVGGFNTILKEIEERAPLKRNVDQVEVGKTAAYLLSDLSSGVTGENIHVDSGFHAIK
# Assay: Staphylococcus aureus FabI enzyme inhibition assay
# Format: biochemical
# Conditions: read-out: FabI (300.235) IC50 (converted)
# Experimental: Y.1 FabI Enzyme Inhibition: Staphylococcus aureus FabI Enzyme Inhibition Assay
# FabI enzyme inhibition assays were carried out in half-area, 384-well microtitre plates. Compounds were evaluated in 40-μl assay mixtures containing 100 mM NaADA, pH 6.5 (ADA=N-[2-acetamido]-2iminodiacetic acid), 250 μM crotonoyl-CoA, 625 μM NADH and 50 μg/ml S. aureus ATCC 29213 FabI. Inhibitors were typically varied over the range of 50 to 0.39 μM. The reaction mixtures were incubated for 30 minutes at room temperature and the reaction was stopped by adding 200 mM Tris buffer (pH 9.0) to create a pH-shift. The consumption of NADH was monitored by measuring the change in absorbance at […]. By comparing sample readings to those of negative (absence of compound) and positive (absence of enzyme) controls, the percent inhibition of enzymatic activity of the compounds was determined A best-fit curve is fitted by a minimum of squares method. From this an IC50-value (expressed in μg/ml), resulting in 50% inhibition of enzymatic activity, was obtained.
row,Structure (SMILES),IC50 [µM]
1,"O=C1CNCc2cc(/C=C/C(=O)N3C[C@H]4CC(c5ccccc5)=C[C@H]4C3)cnc2N1 (single isomer, unassigned) [compound 46]",0.924
2,"O=C1COCc2cc(/C=C/C(=O)N3C[C@H]4CC(c5ccccc5)=C[C@H]4C3)cnc2N1 (single isomer, unassigned) [compound 53]",1.47
3,COc1cncc(C(=O)Nc2ccc(/C=C/C(=O)N3CC4C=C(c5ccccc5)CC4C3)cn2)c1 (centres unmarked) [Cpd. No. 7],2.4
4,Cc1cc(N)ncc1/C=C/C(=O)N1CC2C=C(c3ccccc3)CC2C1 (centres unmarked) [compound 20],8.31
5,Cc1nc(N)ccc1/C=C/C(=O)N1CC2C=C(c3ccccc3)CC2C1 (centres unmarked) [compound 21],6.77
6,N#Cc1cc(N)ncc1/C=C/C(=O)N1CC2C=C(c3ccccc3)CC2C1 (centres unmarked) [compound 22],~33.9
7,COc1nc(NC(C)=O)ccc1/C=C/C(=O)N1CC2C=C(c3ccccc3)CC2C1 (centres unmarked) [compound 23],15.5

# Tested on: not given
# Assay: not given
# Conditions: not given
row,Structure (SMILES),melting point [°C]
1,"O=C1COCc2cc(/C=C/C(=O)N3C[C@H]4CC(c5ccccc5)=C[C@H]4C3)cnc2N1 (single isomer, unassigned) [compound 53]",272.58

# Tested on: Staphylococcus aureus ATCC 29213
# Assay: Antibacterial susceptibility testing, IC90 determination (STA)
# Format: cell-based
# Conditions: Staphylococcus aureus, ATCC29213, Staphylococcus aureus ATCC 29213, broth microdilution, resazurin; read-out: STA (361.159) IC90
# Experimental: (§1) The following bacteria were used: Staphylococcus aureus ATCC 29213, methicillin-resistant Staphylococcus aureus (MRSA) ATCC 700788 and Escherichia coli ATCC 35218. The bacteria used in this study were grown overnight in flasks containing 100 ml Mueller-Hinton broth (Difco cat. nr. 0757-17) in sterile de-ionized water, with shaking, at 37° C. Stocks were store at −70° C. until use.
# (§2) Bacteria were incubated on a tryptic soy agar plate containing 5% sheep blood (Becton Dickinson cat. nr. 254053) for 18-24 hours at 35° C. in aerobic conditions (first passage). For the second passage, fresh Mueller-Hinton broth is inoculated with 5-10 colonies and grown overnight at 35° C. until turbidity (reaching log-phase) in aerobic conditions is reached. The bacterial suspension is then adjusted to 0.5 McFarland density and further diluted 1:100 in Mueller Hinton broth medium. This is used as inoculum.
# The result(s) are depicted the table below (for STA ATCC 29213).
# (§3) MIC assays were performed by the broth microdilution method in a 96-well format (flat-bottom microtitre plates) with a final volume of 0.1 ml Mueller Hinton broth containing two-fold serial dilutions of compounds and inoculated with 5×10^5 CFU/ml of bacteria (standard inoculum size according to CLSI guidelines). Inhibitors are typically varied over the range of 63 to 0.49 μM. The final DMSO concentration in the assay was 1.25% (maximum tolerable DMSO concentration=6%). In the assays where the effect of human serum on the activity of the compounds against S. aureus was tested, human serum was added at a final concentration of 10%. The plates were incubated at 35° C. for 16-20 hours. At the end of incubation the bacterial growth was quantified fluorometrically. For this, resazurin was added to all wells and the plates were re-incubated. The incubation time is dependent on the type of bacteria. A change in color from blue to pink indicated the growth of bacteria. The fluorescence was read in computer-controlled fluorometer (Fluoroskan Ascent FL, Labsystems) at an excitation wavelength 540 nm and an emission wavelength of 590 nm. The % growth inhibition achieved by the compounds was calculated according to standard methods. The IC90 (expressed in μg/ml) was defined as the 90% inhibitory concentration for bacterial growth. A panel of reference compounds were simultaneously tested for QC approval.
row,Structure (SMILES),IC90 [µg/mL]
1,"O=C1CNCc2cc(/C=C/C(=O)N3C[C@H]4CC(c5ccccc5)=C[C@H]4C3)cnc2N1 (single isomer, unassigned) [compound 46]",0.23
2,"O=C1COCc2cc(/C=C/C(=O)N3C[C@H]4CC(c5ccccc5)=C[C@H]4C3)cnc2N1 (single isomer, unassigned) [compound 53]",0.37
3,COc1cncc(C(=O)Nc2ccc(/C=C/C(=O)N3CC4C=C(c5ccccc5)CC4C3)cn2)c1 (centres unmarked) [Cpd. No. 7],< 0.22
4,Cc1cc(N)ncc1/C=C/C(=O)N1CC2C=C(c3ccccc3)CC2C1 (centres unmarked) [compound 20],> 21.8
5,Cc1nc(N)ccc1/C=C/C(=O)N1CC2C=C(c3ccccc3)CC2C1 (centres unmarked) [compound 21],> 21.8
6,N#Cc1cc(N)ncc1/C=C/C(=O)N1CC2C=C(c3ccccc3)CC2C1 (centres unmarked) [compound 22],> 22.5
7,COc1nc(NC(C)=O)ccc1/C=C/C(=O)N1CC2C=C(c3ccccc3)CC2C1 (centres unmarked) [compound 23],> 25.5

# Tested on: S. aureus
# Assay: Antibacterial susceptibility testing, IC90 determination with 10% human serum (STA + 10% HS)
# Format: cell-based, Staphylococcus aureus
# Conditions: Staphylococcus aureus, human serum at final concentration of 10%, read-out: STA + 10% HS (361.169) IC90
# Experimental: as §1, §2, §3
# The results are depicted in the table(s) below (STA+10% HS).
row,Structure (SMILES),IC90 [µg/mL]
1,"O=C1CNCc2cc(/C=C/C(=O)N3C[C@H]4CC(c5ccccc5)=C[C@H]4C3)cnc2N1 (single isomer, unassigned) [compound 46]",0.27
2,"O=C1COCc2cc(/C=C/C(=O)N3C[C@H]4CC(c5ccccc5)=C[C@H]4C3)cnc2N1 (single isomer, unassigned) [compound 53]",0.7
3,COc1cncc(C(=O)Nc2ccc(/C=C/C(=O)N3CC4C=C(c5ccccc5)CC4C3)cn2)c1 (centres unmarked) [Cpd. No. 7],0.42
4,Cc1cc(N)ncc1/C=C/C(=O)N1CC2C=C(c3ccccc3)CC2C1 (centres unmarked) [compound 20],> 21.8
5,Cc1nc(N)ccc1/C=C/C(=O)N1CC2C=C(c3ccccc3)CC2C1 (centres unmarked) [compound 21],> 21.8
6,N#Cc1cc(N)ncc1/C=C/C(=O)N1CC2C=C(c3ccccc3)CC2C1 (centres unmarked) [compound 22],> 22.5
7,COc1nc(NC(C)=O)ccc1/C=C/C(=O)N1CC2C=C(c3ccccc3)CC2C1 (centres unmarked) [compound 23],> 25.5

# Tested on: not listed separately
# Assay: Cytotoxicity MTT assay (HELAM)
# Format: cell-based, Human
# Conditions: human, HelaM cells, read-out: HELAM (222.125) CC50
# Experimental: Cytotoxicity of the compounds was evaluated using the MTT assay. Human HelaM cells grown in 96-well plates were exposed to serial dilutions of the tested compounds (final volume of 0.2 ml) and incubated for 72 hours at 37° C. and 5% CO2. Inhibitors are typically varied over the range of 25 to 0.8 μM. The final DMSO concentration in the assay is 0.5%. MTT (3-(4,5-Dimethylthiazol-2-yl)-2,5-diphenyltetrazolium bromide, a tetrazole) was added and reduced to purple formazan only in living cells. Solubilization of the formazan crystals was achieved by adding 100 μl 2-propanol. Cell viability was determined by measuring the absorbance of the reduced formazan, giving a purple color, at 540 nm and 690 nm. The absorbance measured at 690 nm was automatically subtracted from the absorbance at 540 nm, to eliminate the effects of non-specific absorption. The percent cytotoxicity achieved by the compounds was calculated according to standard methods. Cytotoxicity is reported as CC50, the concentration that causes a 50% reduction in cell viability.
# The results are depicted in the table(s) below (HELAM).
row,Structure (SMILES),CC50 at 72 h [µg/mL]
1,"O=C1CNCc2cc(/C=C/C(=O)N3C[C@H]4CC(c5ccccc5)=C[C@H]4C3)cnc2N1 (single isomer, unassigned) [compound 46]",> 4.05
2,"O=C1COCc2cc(/C=C/C(=O)N3C[C@H]4CC(c5ccccc5)=C[C@H]4C3)cnc2N1 (single isomer, unassigned) [compound 53]",> 10.1
3,COc1cncc(C(=O)Nc2ccc(/C=C/C(=O)N3CC4C=C(c5ccccc5)CC4C3)cn2)c1 (centres unmarked) [Cpd. No. 7],> 11.7
4,Cc1cc(N)ncc1/C=C/C(=O)N1CC2C=C(c3ccccc3)CC2C1 (centres unmarked) [compound 20],4.55
5,Cc1nc(N)ccc1/C=C/C(=O)N1CC2C=C(c3ccccc3)CC2C1 (centres unmarked) [compound 21],3.11
6,N#Cc1cc(N)ncc1/C=C/C(=O)N1CC2C=C(c3ccccc3)CC2C1 (centres unmarked) [compound 22],> 8.95
7,COc1nc(NC(C)=O)ccc1/C=C/C(=O)N1CC2C=C(c3ccccc3)CC2C1 (centres unmarked) [compound 23],> 10.1
